“Also recorded” adds a separate entry of the source. Where two headings read alike, the source gives them in different places.
Columns and labels:
Type in all cases: cell-based
[1] = tested on: human meibomian gland epithelial cells; assay: Immunoblot of SREBP-1 and cyclins B1, D1; settings: for amount of the precursor form of SREBP-1 protein: 10 nM, 6 days, differentiation media
Procedure: The disclosure turns now to sodium dodecyl sulfate-polyacrylamide gel, electrophoresis, and immunoblots. Cells were directly lysed in Laemmli buffer supplemented with 1% protease inhibitor cocktail (Sigma-Aldrich) and 5% β-mercaptoethanol (Sigma-Aldrich). Lysates were heated at 95° C. for 10 minutes, separated by sodium dodecyl sulfate-polyacrylamide gel electrophoresis on 10% Tris-glycine precast gels, and transferred to polyvinylidene difluoride membranes. Rabbit or mouse antibodies used were specific for phosphorylated Akt (p-Akt), pan-Akt, p-FoxO1, FoxO1, p-JAK2, JAK2, and β-actin; for p-ERK, ERK-2, STAT5, and the precursor form of SREBP-1; and for p-STAT5. Membranes were blocked with 5% bovine serum albumin in Tris-buffered saline containing 0.01% polysorbate 20. All primary antibodies were diluted to 1:1000 in blocking buffer except for p-Akt (1:4000), p-ERK (1:2000), ERK-2 (1:4000), SREBP-1 (1:200), and β-actin (1:10 000). Horseradish peroxidase-conjugated secondary antibodies were goat anti-rabbit IgG and Fc-specific goat anti-mouse IgG diluted to 1:5000. Proteins were visualized with enhanced chemiluminescent substrate or with ultrasensitive chemiluminescent substrate. Densitometry was performed with image-processing software.
Turning to the influence of IGF-1 and GH on SREBP-1 expression and lipid accumulation, the experiments examined whether IGF-1 stimulates SREBP-1 expression and lipid accumulation in human meibomian gland epithelial cells. Cells were cultured for 6 days in differentiation media with IGF-1 and then processed the cells for protein and histologic analysis.
FIGS. 11a, 11b, 11c, and 11d illustrate the effect of IGF-1 on sterol regulatory element-binding protein (SREBP-1) expression and lipid accumulation in human meibomian gland epithelial cells. Cells were exposed to IGF-1 or growth hormone (GH) for 6 days in differentiation media and then processed for the analysis of the precursor form of SREBP-1 protein. […] represents 4′,6-diamidino-2-phenylindole nuclear staining. The SREBP-1 densitometry, normalized to that of β-actin, and neutral lipid staining fluorescence intensity (6 field views per treatment condition) were quantified by using image-processing software. These experiments were repeated at least 3 times with similar results. ANOVA indicates analysis of variance; AU, arbitrary units. Whiskers represent SEM.
FIGS. 15a, 15b, 15c, and 15d illustrate the effect of IGF-1, AZM, and IFG-1+AZM combination on the expression of SREBP-1, cyclins B1, and D1. Cells were incubated with vehicle, 10 nM IGF-1, 10 μg/mL AZM, or IGF-1+AZM combination for 5 days. Cell lysates were evaluated on immunoblots for precursor and mature forms of SREBP-1, cyclins B1 and D1. FIG. 15a quantifies the protein band intensities using ImageJ. […] These experiments were repeated at least three times with similar results.

[2] = tested on: immortalized human meibomian gland epithelial cells; assay: Cell proliferation, cells counted with a hemocytometer; settings: for cell proliferation: 10 nM IGF-1 or 10 μg/mL AZM, 13 days, P<0.0001; for cell number: 10 nM
Procedure: (§1) As an example of these experiments, immortalized human meibomian gland epithelial cells were cultured in the presence or absence of 10% fetal bovine serum. Cells were treated with an ethanol vehicle or azithromycin (10 μg/ml; Santa Cruz Biotechnology) for varying time periods. Cellular morphological appearance was recorded, cells were counted with a hemocytometer, and lipid accumulation was assessed by staining the cells with LipidTOX green neutral lipid stain (Invitrogen, Grand Island, N.Y.), according to reported methods. Staining fluorescent intensities were quantified by using ImageJ (http://rsbweb.nih.gov/ij/index.html). Statistical analyses were performed with Student's t-test (two-tailed, unpaired).
(§2) Immortalized human meibomian gland epithelial cells (IHMGECs; passages 20-22) were cultured in the presence or absence of 10% fetal bovine serum. Cells were treated with the ethanol vehicle or azithromycin (10 μg/mL) for varying periods. Cellular morphological appearance was recorded, cells were counted with a hemocytometer, and lipid accumulation was assessed by staining cells with LipidTOX green neutral lipid stain (Invitrogen Corp). Staining fluorescent intensities were quantified using ImageJ software (http://rsbweb.nih.gov/ij/index.html). Statistical analyses were performed with t test (2-tailed, unpaired).
Regarding cell proliferation assay, the human meibomian gland epithelial cells and LNCaP cells were cultured in 12-well plates in designated media and then exposed to IGF-1 or GH for defined periods. At experimental termination, cells were trypsinized and counted with a hemocytometer.
FIGS. 10a, 10b, and 10c illustrate the influence of IGF-1 on the proliferation of human meibomian gland epithelial cells. Cells were cultured (100,000 cells/well in 12-well plates, 3 wells per group) in basal, proliferating, and/or differentiating media and treated with IGF-I for 2 to 6 days. […] P values are for post hoc comparison compared with the control value. […] ANOVA indicates analysis of variance; EGF-BPE, epidermal growth factor-bovine pituitary extract; KSFM, keratinocyte serum-free medium. All comparisons are with control value. Whiskers mark SEM. aP<0.05 compared with the control value, post hoc test.

[3] = tested on: immortalized human meibomian gland epithelial cells; assay: LipidTOX green neutral lipid staining (lipid accumulation); settings: for accumulation of lipid: days 1 to 7; for accumulation of neutral lipids: 10 nM, 6 days, differentiation media
Procedure: as §1, §2
Cell numbers were enumerated with a hemocytometer. Cellular lipid and lysosome accumulation were examined by staining cells with: Filipin III (a fluorometric probe for identifying unesterified cholesterol), LipidTOX green neutral lipid stain, and LysoTracker® Red DND-99 (a fluorescent technique designed for labeling acidic organelles such as lysosomes). Lysosomal lamellar bodies were identified by transmission electron microscopy. In brief, after culture and treatment on 24 mm polycarbonate membrane transwell inserts (0.4 μm pore size), cells were fixed in a solution of 2% formaldehyde+2.5% glutaraldehyde, in 0.08 M sodium cacodylate buffer, pH 7.4, post-fixed with 2% osmium tetroxide in 0.1 M sodium cacodylate buffer, and stained en bloc with 2% aqueousuranyl acetate. […] Cross sections (1 μM) were stained with 1% toluidine blue in 1% sodium tetraborate solution. Ultra-thin sections (60-90 nm) were imaged with a transmission electron microscope interfaced with a digital CCD camera. For biochemical assessments, cellular lipids were extracted with chloroform and methanol from samples with the same amount of protein. Lipids were then evaluated with high-performance thin-layer chromatography. With regard to the staining results, three Filipin, five LipidTox and four LysoTracker studies were conducted, and each experiment was performed in duplicate. Four random pictures were taken of each group, and four random areas were selected for the measurement of fluorescent intensities. The HPTLC experiments were performed in duplicate more than three times. Image data were quantified with ImageJ (http://rsbweb.nib.gov/ij/index.html). Electron microscopic analyses were performed in triplicate.
The experiment included green neutral lipid staining. Immortalized human meibomian gland epithelial cells were cultured in slides treated to facilitate cell growth in FBS-containing medium in the presence or absence of IGF-1, anti-IGF-1R, and/or GH. Media were replaced every 2 to 3 days for a total of 6 days, at which time cells were washed and fixed in 4% paraformaldehyde for 30 minutes. After additional washes, cells were stained with green neutral lipid stain in a humid chamber for 30 minutes. Coverslips were mounted on slides with an antifade reagent that contains 4′,6-diamidino-2-phenylindole nuclear stain and permitted to dry overnight before imaging with a microscope. Fluorescence intensity was quantified using image-processing software.

[4] = 10 nM IGF-1 or 10 μg/mL AZM, 5 days
[5] = azithromycin 10 μg/ml vs vehicle

Row | Compound | expression of mature SREBP-1 [1, 4] | expression of SREBP-1 protein ([1]; azithromycin 10 μg/ml) | cell proliferation [2] | proliferation ([2]; azithromycin 10 μg/ml, absence and presence of serum, days 1 to 7) | fluorescence intensity of LipidTOX staining ([3]; 10 μg/mL, 13 days, two-way ANOVA P<0.0001) | accumulation of neutral lipids (LipidTOX) ([3]; 10 μg/ml, 5 days) | time to marked increase of number, size and staining intensity of intracellular lipid-containing vesicles [3, 5] [days] | accumulation of lipid [3, 5] | accumulation of lipid ([3]; azithromycin 10 μg/ml vs vehicle, listed as azithromycin) | amount of the precursor form of SREBP-1 protein [1] | proliferation ([2]; any of the media, doses 0.1 to 100 nM) | accumulation of neutral lipids [3] | expression of pre-SREBP-1 ([1]; 10 nM IGF-1, 5 days) | expression of cyclin B1 [1, 4] | expression of SREBP-1 protein ([1]; IGF-1 10 nM, alone or with GH and/or DHT) | proliferation [2] | cell number ([2]; 10% FBS-containing medium, 2 to 6 days) | cell number ([2]; keratinocyte serum-free medium alone or with EGF-BPE, 2 days)
1 | CC[C@H]1OC(=O)[C@H](C)[C@@H](O[C@H]2C[C@@](C)(OC)[C@@H](O)[C@H](C)O2)[C@H](C)[C@@H](O[C@@H]2O[C@H](C)C[C@H](N(C)C)[C@H]2O)[C@](C)(O)C[C@@H](C)CN(C)[C@H](C)[C@@H](O)[C@]1(C)O [Azithromycin] | significant effect | increased expression | significant but opposite effect | generally reduced the proliferation | significant effect | significantly stimulates the accumulation | ≤ 3 | striking, time-dependent accumulation of lipid | time-dependent accumulation of lipids; also recorded: striking, time-dependent accumulation of lipid | – | – | – | – | – | – | – | – | –
2 | GH: human growth hormone | – | – | – | – | – | – | – | – | – | not duplicated | no influence on the proliferation | not duplicated | – | – | – | – | – | –
3 | IGF-1: recombinant human insulin-like growth factor 1 | significantly affected | – | significant but opposite effect | – | – | – | – | – | – | rise in the amount of the precursor form of SREBP-1 protein | – | increase in the accumulation of neutral lipids | significantly affected | significantly affected | significant increase in the expression of SREBP-1 protein | increases the proliferation | increase in cell number | not under basal conditions

— US20200297820A1, “STIMULATION OF HUMAN MEIBOMIAN GLAND FUNCTION” (The Schepens Eye Research Institute, Inc., priority 2013, published 2020)
